Data from PubChem BioAssay (NCI).
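Dose response: 5 concentrations. Exposure: 48 h. Format: 96-well plates. Endpoint: linear interpolation; highest concentration if not reached. Here, GI50 denotes the concentration required for 50% inhibition of growth. TGI: concentration producing complete growth inhibition.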

Legend:
Experiment in all cases: inhibition of tumour cell growth, NCI panel, 48 h
OVCAR-5 ovarian = system: OVCAR-5 ovarian
KM12 colon = system: KM12 colon
MOLT-4 leukemia = system: MOLT-4 leukemia
T-47D breast = system: T-47D breast
HS 578T breast = system: HS 578T breast
RPMI-8226 leukemia = system: RPMI-8226 leukemia
M14 melanoma = system: M14 melanoma
K-562 leukemia = system: K-562 leukemia
EKVX NSCLC = system: EKVX NSCLC
COLO 205 colon = system: COLO 205 colon
UACC-62 melanoma = system: UACC-62 melanoma
HT29 colon = system: HT29 colon
HCT-15 colon = system: HCT-15 colon
MDA-MB-435 = system: MDA-MB-435
SK-MEL-2 melanoma = system: SK-MEL-2 melanoma
BT-549 breast = system: BT-549 breast
UO-31 renal = system: UO-31 renal
TK-10 renal = system: TK-10 renal
PC-3 prostate = system: PC-3 prostate
ACHN renal = system: ACHN renal
SK-OV-3 ovarian = system: SK-OV-3 ovarian
SF-295 CNS = system: SF-295 CNS
SW-620 colon = system: SW-620 colon
NCI-H23 lung = system: NCI-H23 lung
U251 CNS = system: U251 CNS
NCI/ADR-RES ovarian = system: NCI/ADR-RES ovarian
HL-60(TB) leukemia = system: HL-60(TB) leukemia
SR leukemia = system: SR leukemia
SN12C renal = system: SN12C renal

## CC(C)Cn1cnc2c(N)nc3ccccc3c21
OVCAR-5 ovarian
  GI50: 65.4 µM
  TGI: > 100 µM
KM12 colon
  GI50: 56.6 µM
  TGI: > 100 µM
MOLT-4 leukemia
  GI50: > 64.4 µM
  TGI: > 100 µM
T-47D breast
  GI50: 41.6 µM
  TGI: > 100 µM
HS 578T breast
  GI50: 60.8 µM
  TGI: > 100 µM
RPMI-8226 leukemia
  GI50: 5.5 µM
  TGI: > 48.3 µM
M14 melanoma
  GI50: 43.9 µM
  TGI: > 100 µM
K-562 leukemia
  GI50: > 54.7 µM
  TGI: > 100 µM
EKVX NSCLC
  GI50: 26.2 µM
  TGI: > 100 µM
COLO 205 colon
  GI50: 20.7 µM
  TGI: > 88.2 µM
UACC-62 melanoma
  GI50: 38.4 µM
  TGI: > 100 µM
HT29 colon
  GI50: 28.8 µM
  TGI: > 100 µM
HCT-15 colon
  GI50: 29.7 µM
  TGI: > 100 µM
MDA-MB-435
  GI50: 48.9 µM
  TGI: > 100 µM
SK-MEL-2 melanoma
  GI50: 41.5 µM
  TGI: > 100 µM
BT-549 breast
  GI50: 43.8 µM
  TGI: > 100 µM
UO-31 renal
  GI50: 35.8 µM
  TGI: > 100 µM
TK-10 renal
  GI50: 94.8 µM
  TGI: > 100 µM
PC-3 prostate
  GI50: 34.7 µM
  TGI: > 100 µM
ACHN renal
  GI50: 27.9 µM
  TGI: > 100 µM
SK-OV-3 ovarian
  GI50: > 100 µM
  TGI: > 100 µM
SF-295 CNS
  GI50: 51.3 µM
  TGI: > 100 µM
SW-620 colon
  GI50: 41.8 µM
  TGI: > 100 µM
NCI-H23 lung
  GI50: 37.1 µM
  TGI: > 100 µM
U251 CNS
  GI50: 47.5 µM
  TGI: > 100 µM
NCI/ADR-RES ovarian
  GI50: 49 µM
  TGI: > 100 µM
HL-60(TB) leukemia
  GI50: > 47.7 µM
  TGI: > 100 µM
SR leukemia
  GI50: > 100 µM
  TGI: > 100 µM
SN12C renal
  GI50: 78.8 µM
  TGI: > 100 µM
